Consider 4 molecules from US20230265151A1, “GIP/GLP1 CO-AGONIST COMPOUNDS” (priority 2020, published 2023).

Where two headings read alike, the source gives them in different places. Where a SMILES comes first, the peptide text is derived from it. Side-chain parts run from the residue outwards. [ ]: non-standard residue; d: D form. The star is where a group is joined. αMePhe(2-F) = C[C@](N)(Cc1ccccc1F)C(=O)O; C14 diacid = O=C(O)CCCCCCCCCCCCC(=O)*; αMeY = C[C@](N)(Cc1ccc(O)cc1)C(=O)O; 4Pal = N[C@@H](Cc1ccncc1)C(=O)O; αMeL = CC(C)C[C@](C)(N)C(=O)O; Orn = NCCC[C@H](N)C(=O)O; AEEA = NCCOCCOCC(=O)O; Aib = CC(C)(N)C(=O)O A value given as a limit tells only on which side of the number the result lay.

Type in all cases: cell-based
For test [1], the target named is T1, hGCGR (Homo sapiens, UniProt P47871).
T1 construct: expressed in transfected cells
The experiment in a line: Functional cAMP formation (HTRF) in HEK-293 clonal cells expressing hGCGR, 0.1% bovine casein, without or with 1.0% human serum albumin. Summed up: (§1)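 Cells were stimulated with peptide for 30 min at 37° C, then intracellular cAMP was measured by competitive HTRF (665/620 nm ratio) and converted to nM using a cAMP standard curve. Relative EC50 and Emax came from four-parameter logistic fits of percent maximal response against peptide concentration.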

The target of test [2] is hGLP-1R (Homo sapiens, UniProt P43220). The test is described as follows: Functional cAMP formation (HTRF) in HEK-293 clonal cells expressing hGLP-1R, 0.1% bovine casein, without or with 1.0% human serum albumin. The arrangement: expressed in transfected cells. The settings on record: for EC50: geometric mean. The essentials: as §1
The target of test [3] is T2, hGIPR (Homo sapiens, UniProt P48546).
T2 construct: expressed in transfected cells
T2 sequence (P48546 22-466): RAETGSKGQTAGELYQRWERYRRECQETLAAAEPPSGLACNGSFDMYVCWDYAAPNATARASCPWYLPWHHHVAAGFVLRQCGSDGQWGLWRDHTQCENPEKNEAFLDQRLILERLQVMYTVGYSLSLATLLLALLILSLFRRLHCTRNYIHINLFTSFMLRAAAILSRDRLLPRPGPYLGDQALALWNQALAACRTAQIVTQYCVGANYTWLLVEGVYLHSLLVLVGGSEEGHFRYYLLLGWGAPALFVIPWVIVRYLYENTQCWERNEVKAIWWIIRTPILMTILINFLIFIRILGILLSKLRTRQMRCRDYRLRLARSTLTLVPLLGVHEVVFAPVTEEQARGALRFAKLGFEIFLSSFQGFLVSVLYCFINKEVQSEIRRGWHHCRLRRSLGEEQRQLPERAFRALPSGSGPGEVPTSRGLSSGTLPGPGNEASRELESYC
The experiment in a line: Functional cAMP formation (HTRF) in HEK-293 clonal cells expressing hGIPR, 0.1% bovine casein, without or with 1.0% human serum albumin. The settings on record: for Emax: percent of maximal response to GIP(1-42)NH2. The essentials:
as §1

Setting [4] is: hGCGR EC50, nM (SEM, n), 0.1% bovine casein and 1.0% human serum albumin, 37° C., geometric mean.
The mark [5] stands for this setting: hGCGR EC50, nM (SEM, n), cAMP, incubated at 37° C., 0.1% bovine casein (no human serum albumin), geometric mean.
Where [6] appears, read: hGLP-1R EC50, nM (SEM, n), 0.1% bovine casein and 1.0% human serum albumin, 37° C.
Where [7] appears, read: hGLP-1R EC50, nM (SEM, n), cAMP, incubated at 37° C., 0.1% bovine casein (no human serum albumin).
The mark [8] stands for this setting: HEK293, read-out: hGIPR Emax, % ± SEM, 0.1% bovine casein and 1.0% human serum albumin, 37° C.
The mark [9] stands for this setting: hGIPR EC50, nM (SEM, n), cAMP, incubated at 37° C., 0.1% bovine casein (no human serum albumin), geometric mean.

Chain of hGLP-1R (P43220 24-463): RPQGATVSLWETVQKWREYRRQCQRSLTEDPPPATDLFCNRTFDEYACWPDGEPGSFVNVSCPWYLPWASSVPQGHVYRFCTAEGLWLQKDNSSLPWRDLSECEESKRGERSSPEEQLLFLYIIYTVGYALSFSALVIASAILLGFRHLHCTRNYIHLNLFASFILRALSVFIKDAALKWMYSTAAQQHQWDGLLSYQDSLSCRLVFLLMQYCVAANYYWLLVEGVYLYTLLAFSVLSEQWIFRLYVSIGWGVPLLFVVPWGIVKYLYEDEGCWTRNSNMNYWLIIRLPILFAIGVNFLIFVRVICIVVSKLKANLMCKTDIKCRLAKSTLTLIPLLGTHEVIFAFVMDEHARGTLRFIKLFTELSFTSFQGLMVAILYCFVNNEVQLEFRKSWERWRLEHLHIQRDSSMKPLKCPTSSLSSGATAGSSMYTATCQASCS
T1 sequence (P47871 26-477): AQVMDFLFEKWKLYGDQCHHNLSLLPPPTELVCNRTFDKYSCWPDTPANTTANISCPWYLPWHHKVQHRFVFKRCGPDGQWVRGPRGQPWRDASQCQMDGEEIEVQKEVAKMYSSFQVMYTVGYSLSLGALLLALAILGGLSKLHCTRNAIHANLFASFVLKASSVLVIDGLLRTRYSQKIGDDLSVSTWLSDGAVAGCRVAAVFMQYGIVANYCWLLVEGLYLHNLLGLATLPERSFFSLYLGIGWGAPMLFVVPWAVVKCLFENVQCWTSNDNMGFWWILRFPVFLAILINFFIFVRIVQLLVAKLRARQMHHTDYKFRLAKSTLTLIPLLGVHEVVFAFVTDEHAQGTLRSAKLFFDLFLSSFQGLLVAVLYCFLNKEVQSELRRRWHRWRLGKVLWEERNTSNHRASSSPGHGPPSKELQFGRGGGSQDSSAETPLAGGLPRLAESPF

On to `CC[C@H](C)[C@H](NC(=O)[C@H](CCCN)NC(=O)[C@H](CC(=O)O)NC(=O)[C@H](CC(C)C)NC(=O)[C@](C)(CC(C)C)NC(=O)[C@@H](NC(=O)C(C)(C)NC(=O)[C@H](Cc1ccc(O)cc1)NC(=O)[C@H](CC(=O)O)NC(=O)[C@H](CO)NC(=O)[C@@H](NC(=O)[C@](C)(Cc1ccccc1F)NC(=O)[C@@H](NC(=O)CNC(=O)[C@H](CCC(=O)O)NC(=O)C(C)(C)NC(=O)[C@@H](N)Cc1ccc(O)cc1)[C@@H](C)O)[C@@H](C)O)[C@@H](C)CC)C(=O)N[C@@H](C)C(=O)N[C@@H](CCC(N)=O)C(=O)NC(C)(C)C(=O)N[C@@H](CCC(=O)O)C(=O)N[C@@H](Cc1ccccc1)C(=O)N[C@H](C(=O)N[C@@H](CCCCNC(=O)COCCOCCNC(=O)CC[C@H](NC(=O)CCCCCCCCCOc1ccc(C(=O)O)cc1)C(=O)O)C(=O)N[C@@](C)(Cc1ccc(O)cc1)C(=O)N[C@@H](CC(C)C)C(=O)N[C@H](C(=O)N[C@@H](CCCCNC(=O)COCCOCCNC(=O)CC[C@H](NC(=O)CCCCCCCCCOc1ccc(C(=O)O)cc1)C(=O)O)C(=O)NCC(=O)NCC(=O)N1CCC[C@H]1C(=O)N[C@@H](CO)C(=O)N[C@@H](CO)C(=O)NCC(=O)N[C@@H](C)C(=O)N1CCC[C@H]1C(=O)N1CCC[C@H]1C(=O)N1CCC[C@H]1C(=O)N[C@@H](CO)C(N)=O)[C@@H](C)CC)[C@@H](C)CC` [Example 375], for which the EC50 in test [1] (hGCGR EC50, nM (SEM, n), cAMP, 37° C., 0.1% bovine casein (no human serum albumin), geometric mean) is > 9950 nM; in test [1] (hGCGR EC50, nM (SEM, n), cAMP, 37° C., 0.1% bovine casein and 1.0% human serum albumin, geometric mean (SEM, n)), > 9950 nM; in test [2] (hGLP-1R EC50, nM (SEM, n), cAMP, 37° C., 0.1% bovine casein (no human serum albumin)), 1.11 nM; in test [3] (hGIPR EC50, nM (SEM, n), cAMP, 37° C., 0.1% bovine casein (no human serum albumin), geometric mean), 0.0566 nM; in test [3] (hGIPR EC50, nM (SEM, n), cAMP, 37° C., 0.1% bovine casein and 1.0% human serum albumin, geometric mean (SEM, n)), 4.68 nM. Moreover, the Emax in test [2] (HEK293, read-out: hGLP-1R Emax, % ± SEM, cAMP, 37° C., 0.1% bovine casein and 1.0% human serum albumin, percent of maximal response to GLP-1(7-36)NH2) came out at 113%; in test [3] (HEK293, read-out: hGIPR Emax, % ± SEM, cAMP, 37° C., 0.1% bovine casein and 1.0% human serum albumin), 85.4%; in test [3] (HEK293, read-out: hGIPR Emax, % ± SEM, cAMP, 37° C., 0.1% bovine casein, arithmetic mean), 100%.
On to `CC[C@H](C)[C@H](NC(=O)[C@H](CCCN)NC(=O)[C@H](CC(=O)O)NC(=O)[C@H](CC(C)C)NC(=O)[C@](C)(CC(C)C)NC(=O)[C@@H](NC(=O)[C@H](CO)NC(=O)[C@H](Cc1ccncc1)NC(=O)[C@H](CC(=O)O)NC(=O)[C@H](CO)NC(=O)[C@@H](NC(=O)[C@](C)(Cc1ccccc1F)NC(=O)[C@@H](NC(=O)CNC(=O)[C@H](CCC(=O)O)NC(=O)C(C)(C)NC(=O)[C@@H](N)Cc1ccc(O)cc1)[C@@H](C)O)[C@@H](C)O)[C@@H](C)CC)C(=O)N[C@@H](C)C(=O)N[C@@H](CCC(N)=O)C(=O)NC(C)(C)C(=O)N[C@@H](CCC(=O)O)C(=O)N[C@@H](Cc1ccccc1)C(=O)N[C@H](C(=O)N[C@H](CCC(=O)O)C(=O)N[C@@](C)(Cc1ccc(O)cc1)C(=O)N[C@@H](CC(C)C)C(=O)N[C@H](C(=O)N[C@@H](CCCCNC(=O)COCCOCCNC(=O)COCCOCCNC(=O)CCCCCCCCCCCCC(=O)O)C(=O)NCC(=O)NCC(=O)N1CCC[C@H]1C(=O)N[C@@H](CO)C(=O)N[C@@H](CO)C(=O)NCC(=O)N[C@@H](C)C(=O)N1CCC[C@H]1C(=O)N1CCC[C@H]1C(=O)N1CCC[C@H]1C(=O)N[C@@H](CO)C(=O)N[C@@H](CCCCNC(=O)COCCOCCNC(=O)COCCOCCNC(=O)CCCCCCCCCCCCC(=O)O)C(N)=O)[C@@H](C)CC)[C@@H](C)CC` [Example 223] (H-Y[Aib]EGT[αMePhe(2-F)]TSD[4Pal]SI[αMeL]LD[Orn]IAQ[Aib]EFI[dE][αMeY]LIK([AEEA-AEEA-C14 diacid])GGPSSGAPPPSK([AEEA-AEEA-C14 diacid])-NH2), for which the EC50 in test [1] (0.1% bovine casein and 1.0% human serum albumin, 37° C., geometric mean, read-out: hGCGR EC50, nM (SEM, n)) is > 9950 nM; in test [1] (cAMP, incubated at 37° C., 0.1% bovine casein (no human serum albumin), geometric mean, read-out: hGCGR EC50, nM (SEM, n)) it was > 9950 nM; in test [2] (cAMP, incubated at 37° C., 0.1% bovine casein (no human serum albumin), read-out: hGLP-1R EC50, nM (SEM, n)), 1.43 nM; in test [3] (0.1% bovine casein and 1.0% human serum albumin, 37° C., geometric mean, read-out: hGIPR EC50, nM (SEM, n)), 7.84 nM; in test [3] (cAMP, incubated at 37° C., 0.1% bovine casein (no human serum albumin), geometric mean, read-out: hGIPR EC50, nM (SEM, n)), 0.0252 nM. The Emax in test [2] (HEK293, 0.1% bovine casein and 1.0% human serum albumin, 37° C., percent of maximal response to GLP-1(7-36)NH2, read-out: hGLP-1R Emax, % ± SEM) was found to be 115%; in test [2] (HEK293, percent of maximal response to GLP-1(7-36)NH2, 37° C., 0.1% bovine casein, arithmetic mean, read-out: hGLP-1R Emax, % ± SEM), 94%; in test [3] (HEK293, 0.1% bovine casein and 1.0% human serum albumin, 37° C., read-out: hGIPR Emax, % ± SEM), 79.2%.
For the molecule `CC[C@H](C)[C@H](NC(=O)[C@H](CC(C)C)NC(=O)[C@](C)(Cc1ccc(O)cc1)NC(=O)[C@@H](CCC(=O)O)NC(=O)[C@@H](NC(=O)[C@H](Cc1ccccc1)NC(=O)[C@H](CCC(=O)O)NC(=O)C(C)(C)NC(=O)[C@H](CCC(N)=O)NC(=O)[C@H](C)NC(=O)[C@H](CCCCNC(=O)COCCOCCNC(=O)COCCOCCNC(=O)CC[C@H](NC(=O)CCCCCCCCCOc1ccc(C(=O)O)cc1)C(=O)O)NC(=O)[C@H](CCCN)NC(=O)[C@H](CC(=O)O)NC(=O)[C@H](CC(C)C)NC(=O)[C@](C)(CC(C)C)NC(=O)[C@@H](NC(=O)C(C)(C)NC(=O)[C@H](Cc1ccc(O)cc1)NC(=O)[C@H](CC(=O)O)NC(=O)[C@H](CO)NC(=O)[C@@H](NC(=O)[C@](C)(Cc1ccccc1F)NC(=O)[C@@H](NC(=O)CNC(=O)[C@H](CCC(=O)O)NC(=O)C(C)(C)NC(=O)[C@@H](N)Cc1ccc(O)cc1)[C@@H](C)O)[C@@H](C)O)[C@@H](C)CC)[C@@H](C)CC)C(=O)N[C@@H](CCC(=O)O)C(=O)NCC(=O)NCC(=O)N1CCC[C@H]1C(=O)N[C@@H](CO)C(=O)N[C@@H](CO)C(=O)NCC(=O)N[C@@H](C)C(=O)N1CCC[C@H]1C(=O)N1CCC[C@H]1C(=O)N1CCC[C@H]1C(=O)N[C@@H](CO)C(=O)N[C@@H](CCCCNC(=O)COCCOCCNC(=O)COCCOCCNC(=O)CC[C@H](NC(=O)CCCCCCCCCOc1ccc(C(=O)O)cc1)C(=O)O)C(N)=O` [Example 238], the EC50 was > 9950 nM in test [1] (setting [4]); > 9950 nM in test [1] (setting [5]); 27.2 nM in test [2] (setting [6]); 1.03 nM in test [2] (setting [7]); 0.0214 nM in test [3] (setting [9]). The Emax in test [3] (setting [8]) was determined as 90.5%.
Regarding `CC[C@H](C)[C@H](NC(=O)[C@H](CC(C)C)NC(=O)[C@](C)(Cc1ccc(O)cc1)NC(=O)[C@H](CCCCNC(=O)COCCOCCNC(=O)CC[C@H](NC(=O)CCCCCCCCCCCCC(=O)O)C(=O)O)NC(=O)[C@@H](NC(=O)[C@H](Cc1ccccc1)NC(=O)[C@H](CCC(=O)O)NC(=O)C(C)(C)NC(=O)[C@H](CCC(N)=O)NC(=O)[C@H](C)NC(=O)[C@H](CCCCNC(=O)COCCOCCNC(=O)CC[C@H](NC(=O)CCCCCCCCCCCCC(=O)O)C(=O)O)NC(=O)[C@H](CCCN)NC(=O)[C@H](CC(=O)O)NC(=O)[C@H](CC(C)C)NC(=O)[C@](C)(CC(C)C)NC(=O)[C@@H](NC(=O)[C@H](CO)NC(=O)[C@H](Cc1ccncc1)NC(=O)[C@H](CC(=O)O)NC(=O)[C@H](CO)NC(=O)[C@@H](NC(=O)[C@](C)(Cc1ccccc1F)NC(=O)[C@@H](NC(=O)CNC(=O)[C@H](CCC(=O)O)NC(=O)C(C)(C)NC(=O)[C@@H](N)Cc1ccc(O)cc1)[C@@H](C)O)[C@@H](C)O)[C@@H](C)CC)[C@@H](C)CC)C(=O)N[C@@H](CCC(=O)O)C(=O)NCC(=O)NCC(=O)N1CCC[C@H]1C(=O)N[C@@H](CO)C(=O)N[C@@H](CO)C(=O)NCC(=O)N[C@@H](C)C(=O)N1CCC[C@H]1C(=O)N1CCC[C@H]1C(=O)N1CCC[C@H]1C(=O)N[C@@H](CO)C(N)=O` [Example 79], the EC50 in test [1] (setting [4]) is > 9950 nM; in test [1] (setting [5]) it was > 9950 nM; in test [2] (setting [6]) it was 15.1 nM; in test [2] (setting [7]) it was 0.223 nM; in test [3] (hGIPR EC50, nM (SEM, n), 0.1% bovine casein and 1.0% human serum albumin, 37° C., geometric mean) it was 2.31 nM; in test [3] (setting [9]), 0.013 nM. The Emax in test [3] (setting [8]) amounted to 95%.
